Laboratory results: US20230398130A1, “METHODS AND COMPOSITIONS FOR DIFFERENTIATING STEM CELLS” (Massachusetts Institute of Technology, priority 2020, published 2023)

Experiments:
ISC-enriched organoids [1] = experiment: Primary screen, 384-well 2.5-D organoid differentiation (ENR+CD, 6 days): carbachol-induced lysozyme secretion (LYZ.S); assay type: cell-based, murine; details: primary screen; for Z.LYZ.S: standard z score; for SSMD.LYZ.S: strictly standardized mean difference; for Dose.FC.LYZ.S: FC vs plate median
Description: (§1) High-throughput screening.

ISC-enriched organoids [2] = experiment: Primary screen, 384-well 2.5-D organoid differentiation (ENR+CD, 6 days): basal lysozyme secretion (LYZ.NS); assay type: cell-based, murine; details: primary screen; for SSMD.LYZ.NS: strictly standardized mean difference; for Dose.FC.LYZ.NS: FC vs plate median; for Z.LYZ.NS: standard z score
Description: as §1

ISC-enriched organoids [3] = experiment: Primary screen, 384-well 2.5-D organoid differentiation (ENR+CD, 6 days, Target Selective Inhibitor Library, vs whole-plate median): ATP (CellTiter-Glo 3D, CTG); details: primary screen; for Z.CTG: standard z score; for SSMD.CTG: strictly standardized mean difference; for Dose.FC.CTG: FC vs plate median
[4] = 1st of the 4 dose lines of the treatment (dose not given)
[5] = 2nd of the 4 dose lines of the treatment (dose not given)
[6] = 3rd of the 4 dose lines of the treatment (dose not given)
[7] = 4th of the 4 dose lines of the treatment (dose not given)

Structure (SMILES) | Z.LYZ.S (ISC-enriched organoids [1]; [4]) | Z.LYZ.S (ISC-enriched organoids [1]; [5]) | Z.LYZ.S (ISC-enriched organoids [1]; [6]) | Z.LYZ.S (ISC-enriched organoids [1]; [7]) | SSMD.LYZ.S (ISC-enriched organoids [1]; [4]) | SSMD.LYZ.S (ISC-enriched organoids [1]; [5]) | SSMD.LYZ.S (ISC-enriched organoids [1]; [6]) | SSMD.LYZ.S (ISC-enriched organoids [1]; [7]) | SSMD.LYZ.NS (ISC-enriched organoids [2]; [4]) | SSMD.LYZ.NS (ISC-enriched organoids [2]; [5]) | SSMD.LYZ.NS (ISC-enriched organoids [2]; [6]) | SSMD.LYZ.NS (ISC-enriched organoids [2]; [7]) | Z.CTG (ISC-enriched organoids [3]; Dose 0.08 uM) | Z.CTG (ISC-enriched organoids [3]; Dose 0.40 uM) | Z.CTG (ISC-enriched organoids [3]; Dose 2.00 uM) | Z.CTG (ISC-enriched organoids [3]; Dose 10.00 uM) | SSMD.CTG (ISC-enriched organoids [3]; [4]) | SSMD.CTG (ISC-enriched organoids [3]; [5]) | SSMD.CTG (ISC-enriched organoids [3]; [6]) | SSMD.CTG (ISC-enriched organoids [3]; [7]) | also measured
CCn1c(=O)c2c(nc(/C=C/c3ccc(OC)c(OC)c3)n2C)n(CC)c1=O [Istradefylline] | −0.190 | −0.560 | −0.621 | −0.367 | −0.139 | −0.661 | −0.578 | −0.289 | −0.084 | −0.362 | −0.012 | −0.336 | −0.107 | 0.158 | −0.375 | −0.091 | −0.113 | 0.225 | −0.412 | −0.106 | 
CC(C)(C)c1cc(C(C)(C)C)c(NC(=O)c2c[nH]c3ccccc3c2=O)cc1O [Ivacaftor (VX-770)] | 0.853 | 1.220 | 0.124 | −1.636 | 0.705 | 1.209 | 0.148 | −1.350 | 0.882 | 0.825 | 0.582 | −1.167 | 0.558 | 0.347 | −0.354 | −1.123 | 0.431 | 0.280 | −0.331 | −1.317 | Dose.FC.LYZ.S (ISC-enriched organoids [1]; Dose 0.08 uM): 0.132 log 2 fold change; Dose.FC.LYZ.S (ISC-enriched organoids [1]; Dose 0.40 uM): 0.189 log 2 fold change; Dose.FC.LYZ.S (ISC-enriched organoids [1]; Dose 2.00 uM): 0.019 log 2 fold change; Dose.FC.LYZ.S (ISC-enriched organoids [1]; Dose 10.00 uM): −0.253 log 2 fold change; Dose.FC.LYZ.NS (ISC-enriched organoids [2]; Dose 0.08 uM): 0.099 log 2 fold change; Z.LYZ.NS (ISC-enriched organoids [2]; Dose 0.08 uM): 0.864; Dose.FC.LYZ.NS (ISC-enriched organoids [2]; Dose 0.40 uM): 0.127 log 2 fold change; Z.LYZ.NS (ISC-enriched organoids [2]; Dose 0.40 uM): 1.109; Dose.FC.LYZ.NS (ISC-enriched organoids [2]; Dose 2.00 uM): 0.082 log 2 fold change; Z.LYZ.NS (ISC-enriched organoids [2]; Dose 2.00 uM): 0.717; Dose.FC.LYZ.NS (ISC-enriched organoids [2]; Dose 10.00 uM): −0.142 log 2 fold change; Z.LYZ.NS (ISC-enriched organoids [2]; Dose 10.00 uM): −1.240; Dose.FC.CTG (ISC-enriched organoids [3]; Dose 0.08 uM): 0.234 log 2 fold change; Dose.FC.CTG (ISC-enriched organoids [3]; Dose 0.40 uM): 0.145 log 2 fold change; Dose.FC.CTG (ISC-enriched organoids [3]; Dose 2.00 uM): −0.148 log 2 fold change; Dose.FC.CTG (ISC-enriched organoids [3]; Dose 10.00 uM): −0.470 log 2 fold change
Clc1ccc(N/N=C(\c2ccccc2)c2ccccn2)nc1 [JIB-04] | 1.312 | 0.545 | −0.365 | −0.552 | 0.895 | 0.407 | −0.339 | −0.195 | 0.941 | 0.239 | 0.042 | −0.845 | 0.607 | 0.258 | 0.219 | −0.433 | 0.552 | 0.331 | 0.282 | −0.531 | Dose.FC.LYZ.S (ISC-enriched organoids [1]; Dose 0.08 uM): 0.203 log 2 fold change; Dose.FC.LYZ.S (ISC-enriched organoids [1]; Dose 0.40 uM): 0.084 log 2 fold change; Dose.FC.LYZ.S (ISC-enriched organoids [1]; Dose 2.00 uM): −0.056 log 2 fold change; Dose.FC.LYZ.S (ISC-enriched organoids [1]; Dose 10.00 uM): −0.085 log 2 fold change; Dose.FC.LYZ.NS (ISC-enriched organoids [2]; Dose 0.08 uM): 0.178 log 2 fold change; Z.LYZ.NS (ISC-enriched organoids [2]; Dose 0.08 uM): 1.549; Dose.FC.LYZ.NS (ISC-enriched organoids [2]; Dose 0.40 uM): 0.030 log 2 fold change; Z.LYZ.NS (ISC-enriched organoids [2]; Dose 0.40 uM): 0.264; Dose.FC.LYZ.NS (ISC-enriched organoids [2]; Dose 2.00 uM): 0.006 log 2 fold change; Z.LYZ.NS (ISC-enriched organoids [2]; Dose 2.00 uM): 0.048; Dose.FC.LYZ.NS (ISC-enriched organoids [2]; Dose 10.00 uM): −0.153 log 2 fold change; Z.LYZ.NS (ISC-enriched organoids [2]; Dose 10.00 uM): −1.330; Dose.FC.CTG (ISC-enriched organoids [3]; Dose 0.08 uM): 0.254 log 2 fold change; Dose.FC.CTG (ISC-enriched organoids [3]; Dose 0.40 uM): 0.108 log 2 fold change; Dose.FC.CTG (ISC-enriched organoids [3]; Dose 2.00 uM): 0.092 log 2 fold change; Dose.FC.CTG (ISC-enriched organoids [3]; Dose 10.00 uM): −0.181 log 2 fold change
O=C(Nc1ccccc1)N1CCN(c2nc(-c3ccccc3)ns2)CC1 [JNJ-1661010] | 0.873 | 0.263 | −0.408 | −0.441 | 0.612 | 0.250 | −0.454 | −0.449 | 0.805 | 0.332 | 0.332 | 0.237 | −0.225 | −0.625 | −0.131 | −0.346 | −0.169 | −0.659 | −0.113 | −0.309 | Dose.FC.LYZ.S (ISC-enriched organoids [1]; Dose 0.08 uM): 0.135 log 2 fold change; Dose.FC.LYZ.S (ISC-enriched organoids [1]; Dose 0.40 uM): 0.041 log 2 fold change; Dose.FC.LYZ.S (ISC-enriched organoids [1]; Dose 2.00 uM): −0.063 log 2 fold change; Dose.FC.LYZ.S (ISC-enriched organoids [1]; Dose 10.00 uM): −0.068 log 2 fold change; Dose.FC.LYZ.NS (ISC-enriched organoids [2]; Dose 0.08 uM): 0.122 log 2 fold change; Z.LYZ.NS (ISC-enriched organoids [2]; Dose 0.08 uM): 1.066; Dose.FC.LYZ.NS (ISC-enriched organoids [2]; Dose 0.40 uM): 0.075 log 2 fold change; Z.LYZ.NS (ISC-enriched organoids [2]; Dose 0.40 uM): 0.653; Dose.FC.LYZ.NS (ISC-enriched organoids [2]; Dose 2.00 uM): 0.103 log 2 fold change; Z.LYZ.NS (ISC-enriched organoids [2]; Dose 2.00 uM): 0.897; Dose.FC.LYZ.NS (ISC-enriched organoids [2]; Dose 10.00 uM): 0.047 log 2 fold change; Z.LYZ.NS (ISC-enriched organoids [2]; Dose 10.00 uM): 0.406; Dose.FC.CTG (ISC-enriched organoids [3]; Dose 0.08 uM): −0.094 log 2 fold change; Dose.FC.CTG (ISC-enriched organoids [3]; Dose 0.40 uM): −0.262 log 2 fold change; Dose.FC.CTG (ISC-enriched organoids [3]; Dose 2.00 uM): −0.055 log 2 fold change; Dose.FC.CTG (ISC-enriched organoids [3]; Dose 10.00 uM): −0.145 log 2 fold change
Cc1ccc(NCCCc2ccccc2)c(N)c1 [JSH-23] | 1.064 | 0.686 | 0.032 | −0.171 | 1.259 | 0.611 | 0.030 | −0.147 | 0.371 | 0.452 | −0.012 | −0.250 | 0.462 | 0.548 | 0.176 | 0.110 | 0.462 | 0.536 | 0.179 | 0.139 | Dose.FC.LYZ.S (ISC-enriched organoids [1]; Dose 0.08 uM): 0.164 log 2 fold change; Dose.FC.LYZ.S (ISC-enriched organoids [1]; Dose 0.40 uM): 0.106 log 2 fold change; Dose.FC.LYZ.S (ISC-enriched organoids [1]; Dose 2.00 uM): 0.005 log 2 fold change; Dose.FC.LYZ.S (ISC-enriched organoids [1]; Dose 10.00 uM): −0.026 log 2 fold change; Dose.FC.LYZ.NS (ISC-enriched organoids [2]; Dose 0.08 uM): 0.054 log 2 fold change; Z.LYZ.NS (ISC-enriched organoids [2]; Dose 0.08 uM): 0.474; Dose.FC.LYZ.NS (ISC-enriched organoids [2]; Dose 0.40 uM): 0.079 log 2 fold change; Z.LYZ.NS (ISC-enriched organoids [2]; Dose 0.40 uM): 0.688; Dose.FC.LYZ.NS (ISC-enriched organoids [2]; Dose 2.00 uM): −0.002 log 2 fold change; Z.LYZ.NS (ISC-enriched organoids [2]; Dose 2.00 uM): −0.017; Dose.FC.LYZ.NS (ISC-enriched organoids [2]; Dose 10.00 uM): −0.046 log 2 fold change; Z.LYZ.NS (ISC-enriched organoids [2]; Dose 10.00 uM): −0.399; Dose.FC.CTG (ISC-enriched organoids [3]; Dose 0.08 uM): 0.193 log 2 fold change; Dose.FC.CTG (ISC-enriched organoids [3]; Dose 0.40 uM): 0.230 log 2 fold change; Dose.FC.CTG (ISC-enriched organoids [3]; Dose 2.00 uM): 0.074 log 2 fold change; Dose.FC.CTG (ISC-enriched organoids [3]; Dose 10.00 uM): 0.046 log 2 fold change
